# Results taken from publication PMC9954146, “Anti-Leukaemic Activity of Rilpivirine Is Mediated by Aurora A Kinase Inhibition” (Cancers, 2023).
# Read-outs that look alike come from different tables or passages of the source.
# Key:
# CK1(y) = test: Kinase panel; format: biochemical, yeast; conditions: 1 μM
# Protocol: Kinome-wide selectivity of rilpivirine was measured using the kinase screening and profiling service of Eurofins Scientific (Le bois l’Evêque 86600. Celle-Lévescault, France) and Ki values were determined using radioisotope-based assays by Reaction Biology Corporation (Malvern, PA, USA). The experimental details of Eurofin Scientific and Reaction Biology services for relevant assays are available at https://www.eurofinsdiscoveryservices.com/services/in-Vitro-assays/kinases/kinase-profiler (accessed on 7 July 2021) and https://www.reactionbiology.com (accessed on 7 July 2021), respectively. Ki values were estimated from the corresponding IC50 values using the Cheng–Prusoff equation [21] and the Km (ATP) of individual kinase was used for IC50 determination.
# HL-60 cells [1] = test: Resazurin cell viability assay; format: cell-based; conditions: Homo sapiens, read-out: GI50
# Protocol: Cell viability was determined by a resazurin-based assay as described previously. […] At the end of the treatment period, 20 µL of resazurin (0.1 mg/mL in PBS) was added per well and incubated for further 4 h.
# HL-60 cells [2] = test: Apoptosis, annexin V/PI double staining; format: cell-based, human; conditions: 48 h
# Protocol: (§1) The cellular apoptosis was detected using annexin-V/PI double staining by following a method described previously. Briefly, cells were added in 6-well plates containing 3 mL of medium each well at 8 × 10^4 cells/well and incubated at 37 °C, 5% CO2. After overnight incubation, the test compounds were added to the cells and again incubated for desired time points. Then, the cells were collected in FACS tubes, washed with PBS and incubated with annexin V and PI solution for 15 min in the dark at room temperature. The apoptotic cell death was measured within 1 h using the same instrument and data processing software described for cell cycle analysis.
# K-562 cells = test: Apoptosis, annexin V/PI double staining; format: cell-based, human; conditions: 48 h
# Protocol: as §1
# MV4-11 cells = test: Apoptosis, annexin V/PI double staining; format: cell-based, human; conditions: 10 or 20 μM, 48 h; FLT3-ITD mutation
# Protocol: as §1
# NB4 cells = test: Apoptosis, annexin V/PI double staining; format: cell-based, human; conditions: 48 h
# Protocol: as §1
# U-937 cells = test: Apoptosis, annexin V/PI double staining; format: cell-based, human; conditions: 48 h
# Protocol: as §1
# [3] = Pharmacokinetic analysis in mice; format: in vivo, mouse
# Protocol: A pharmacokinetic study was performed as described previously. The pharmacokinetics of rilpivirine was determined after administration of single 50 mg/kg oral (PO) and 2 mg/kg intravenous (IV) doses to male BALB/c hairy mice (n = 6 per route). Briefly, three blood samples were collected from both cheeks (left and right) and the heart of each mouse. A validated liquid chromatography-mass spectrometry/mass spectrometry (LC-MS/MS) technique was used to measure the drug concentrations in the plasma. Pharmacokinetic parameters were estimated using compartmental models (Phoenix, Certara, NJ, USA) and analysis was performed with WinNonlin 6.4 software (Princeton, NJ, USA).
# [4] = Tolerated dose in non-tumour-bearing mice; format: in vivo; conditions: up to an oral dose of 300 mg/kg, once daily for seven days; non-tumour-bearing female BALB/c nude mice
# Protocol: Animal experiments were performed as reported previously. All animal experiments were conducted following the institutional ethical principles of animal care and approved by the University of South Australia Animal Ethics Committee.
# [5] = In vivo safety profile in HL-60 engrafted mice; design: species or system mouse; conditions: 200 mg/kg orally, once daily for 14 days
# Protocol: Female 6–7-week-old BALB/c nude mice with tumour volumes of 100–200 mm^3 were allocated to two groups (n = 3 per group) and treated with vehicle (0.5% HPMC in water) or rilpivirine (200 mg/kg) daily for 14 days. Upon 24 h post the final dose, mice were humanely killed, and blood, bone marrow, heart, kidney, intestine, liver, and stomach were collected for histopathological analysis. Blood was collected in citrate-treated tubes and a complete blood count was performed by Gribbles Veterinary Pathology (South Australia, Australia). Organs were collected in 10% neutral buffered formalin and stained with hematoxylin and eosin externally by the Hanson Histology Services (South Australia, Australia), while histopathologic analysis was performed by a board-certified pathologist.
# HL-60 xenograft = test: In vivo anti-cancer efficacy, HL-60 xenograft; conditions: 200 mg/kg oral gavage once daily for 15 days
# Protocol: An in vivo anti-cancer efficacy study was performed as reported previously. Briefly, female nude BALB/c mice (6–8 weeks of age) were engrafted with HL-60 human leukaemic cells subcutaneously into the rear flanks. Before inoculation, HL-60 (5 × 10^6) cells were cultured, harvested, and re-suspended in a 1:1 mixture of serum-free media and Matrigel (BD Biosciences, NSW, Australia). Mice with 100–200 mm^3 tumour size were allocated randomly into the control or treatment group. Rilpivirine and vehicle (0.5% HPMC) were administered by oral gavage daily. Mice were checked daily for any clinical signs of toxicity, including weight loss. Tumour volume was measured every other day and was calculated as length × width × height. At the end of the study period, or if clinical endpoints were reached as determined by a clinical record sheet score of 4, body condition score of 1, weight loss of ≥15%, or tumour growth of ≥2000 mm^3, the mouse was euthanised. Data analysis was performed using GraphPad Prism software version 7.02 (La Jolla, CA, USA).
# Aurora A = molecular target: Aurora A; design: method as in PMID 36297298; conditions: apparent Ki from IC50 and Km (ATP), cited from earlier work
# PIM1 = molecular target: PIM1; design: method as in PMID 36297298; conditions: apparent Ki from IC50 and Km (ATP); cited from earlier work
# [6] = male, BALB/c hairy, mouse, plasma, IV, 2 mg/kg single dose
# [7] = male, BALB/c hairy, mouse, plasma, PO, 50 mg/kg single dose
compound,measurement,setting,value
"Cc1cc(/C=C/C#N)cc(C)c1Nc1ccnc(Nc2ccc(C#N)cc2)n1 [rilpivirine, (E)-4-((4-((4-(2-cyanoethenyl)-2,6-dimethylphenyl)amino)pyrimidin-2-yl)amino)benzonitrile]",% Residual Activity,CK1(y),92%
same,GI50,"HL-60 cells [1]; HL-60, 24 h",9.16 ± 1.05 µM
same,GI50,"HL-60 cells [1]; HL-60, 48 h",6.26 ± 0.15 µM
same,GI50,"HL-60 cells [1]; HL-60, 72 h",4.12 ± 0.18 µM
same,apoptotic cells (early and late apoptosis),HL-60 cells [2]; 5 µM,6.94%
same,apoptotic cells (early and late apoptosis),HL-60 cells [2]; 10 µM,48.73%
same,apoptotic cells (early and late apoptosis),HL-60 cells [2]; 20 µM,67.32%
same,apoptotic cells (early and late apoptosis),K-562 cells; 5 µM,15.06%
same,apoptotic cells (early and late apoptosis),K-562 cells; 10 µM,31.88%
same,apoptotic cells (early and late apoptosis),K-562 cells; 20 µM,38.21%
same,apoptosis induction,MV4-11 cells,induced significant apoptosis
same,apoptotic cells (early and late apoptosis),NB4 cells; 5 µM,31.62%
same,apoptotic cells (early and late apoptosis),NB4 cells; 10 µM,87.04%
same,apoptotic cells (early and late apoptosis),NB4 cells; 20 µM,98.9%
same,apoptotic cells (early and late apoptosis),U-937 cells; 5 µM,20.68%
same,apoptotic cells (early and late apoptosis),U-937 cells; 10 µM,29.58%
same,apoptotic cells (early and late apoptosis),U-937 cells; 20 µM,39.47%
same,Cmax,"[3]; IV, 2 mg/kg single dose, 2 mg/kg",> 20 µM
same,Cmax,"[3]; PO, 50 mg/kg single dose, 50 mg/kg",> 20 µM
same,AUC(0-t),[3]; [6],20 µM·h
same,Tmax,[3]; [6],0.033 h
same,half-life,[3]; [6],1.3 h
same,AUC(0-t),[3]; [7],247 µM·h
same,Tmax,[3]; [7],1.5 h
same,bioavailability,[3]; [7],49.1%
same,half-life,[3]; [7],4.91 h
same,Cmax,"[3]; male, BALB/c hairy, mouse, plasma, iv, 2 mg/kg, 2 mg/kg single dose",22.4 µM
same,Cmax,"[3]; male, BALB/c hairy, mouse, plasma, po, 50 mg/kg, 50 mg/kg single dose",33.3 µM
same,body weight and clinical signs of toxicity,[4],"did not cause any significant changes in body weight (i.e., >15%) or show overt clinical signs of toxicity"
same,"complete blood count (red blood cells, neutrophils, lymphocytes, platelets)",[5],did not show any noticeable effects
same,histopathology of major organs,[5],did not cause any tissue damage in major organs
same,day from which reduction in tumour growth was statistically significant (p < 0.001),HL-60 xenograft,≥ 11 days
same,signs of toxicity or weight loss during treatment,HL-60 xenograft,did not cause any apparent signs of toxicity or weight loss
same,tumour growth compared with vehicle-treated group,HL-60 xenograft,noticeable delay in tumour growth
same,Ki,Aurora A,~0.116 µM
same,Ki,Aurora A; listed as Rilpivirine,0.12 µM
same,Ki,PIM1,0.52 µM
